Laboratory results as given in ChEMBL document CHEMBL3885881, “DrugMatrix”.

Species: Rattus norvegicus
Assay: DrugMatrix - Regimen: Daily Repeat
Assay type: toxicity, organism-based, Sprague-Dawley
Design: regimen Daily Repeat, gender Male, age 6-8 weeks
Conditions: in vivo, po, route oral GAVAGE, vehicle .5 % CMC; for ABSOLUTE BASOPHIL / ABSOLUTE EOSINOPHIL / ABSOLUTE LYMPHOCYTE / ABSOLUTE MONOCYTE / ABSOLUTE SEGMENTED NEUTROPHIL / BASOPHIL / EOSINOPHIL / ERYTHROCYTE COUNT / HEMATOCRIT / HEMOGLOBIN / LEUKOCYTE COUNT / LYMPHOCYTE / MEAN CORPUSCULAR HEMOGLOBIN / MEAN CORPUSCULAR HEMOGLOBIN CONCENTRATION / MEAN CORPUSCULAR VOLUME / MONOCYTE / NEUTROPHIL / NUCLEATED RED BLOOD CELLS / PLATELET COUNT: tissue Blood; for ALANINE AMINOTRANSFERASE / ALBUMIN / ALKALINE PHOSPHATASE / ASPARTATE AMINOTRANSFERASE / BLOOD UREA NITROGEN / CARBON DIOXIDE / CHLORIDE / CHOLESTEROL / CREATINE PHOSPHOKINASE / CREATININE / GLUCOSE / LACTATE DEHYDROGENASE / LIPASE / PHOSPHORUS / POTASSIUM / SODIUM / TOTAL BILIRUBIN / TOTAL PROTEIN / URIC ACID: tissue Plasma
[1] = 1 mg/kg, 72 h, dose level Low, time 3 day
[2] = 1 mg/kg, 120 h, dose level Low, time 5 day
[3] = 68 mg/kg, 72 h, dose level High, time 3 day
[4] = 68 mg/kg, 120 h, dose level High, time 5 day

SMILES: C[C@]12C=CC(=O)C=C1CC[C@@H]1[C@@H]2C(=O)C[C@@]2(C)[C@H]1CC[C@]2(O)C(=O)CO [PREDNISONE]
- ABSOLUTE BASOPHIL [1]: 0 CELLS/uL
- ABSOLUTE EOSINOPHIL [1]: 0 CELLS/uL
- ABSOLUTE LYMPHOCYTE [1]: 13566 CELLS/uL
- ABSOLUTE MONOCYTE [1]: 151.33 CELLS/uL
- ABSOLUTE SEGMENTED NEUTROPHIL [1]: 1516 CELLS/uL
- BASOPHIL [1]: 0%
- EOSINOPHIL [1]: 0%
- ERYTHROCYTE COUNT [1]: 5.56 x10E6/uL
- HEMATOCRIT [1]: 34.8%
- HEMOGLOBIN [1]: 13.33 G/DL
- LEUKOCYTE COUNT [1]: 15.23 x10E3/uL
- LYMPHOCYTE [1]: 89%
- MEAN CORPUSCULAR HEMOGLOBIN [1]: 24 pg
- MEAN CORPUSCULAR HEMOGLOBIN CONCENTRATION [1]: 38.33 G/DL
- MEAN CORPUSCULAR VOLUME [1]: 62.6 fL
- MONOCYTE [1]: 1%
- NEUTROPHIL [1]: 10%
- NUCLEATED RED BLOOD CELLS [1]: 0.33 /100WBC
- PLATELET COUNT [1]: 1291 x10E3/uL
- ALANINE AMINOTRANSFERASE [1]: 51.67 u/L
- ALBUMIN [1]: 4.43 G/DL
- ALKALINE PHOSPHATASE [1]: 455.67 u/L
- ASPARTATE AMINOTRANSFERASE [1]: 87.33 u/L
- BLOOD UREA NITROGEN [1]: 16 mg/dL
- CARBON DIOXIDE [1]: 24 mmol/L
- CHLORIDE [1]: 107.33 MEQ/L
- CHOLESTEROL [1]: 68.67 mg/dL
- CREATINE PHOSPHOKINASE [1]: 294.67 u/L
- CREATININE [1]: 0.23 mg/dL
- GLUCOSE [1]: 153.33 mg/dL
- LACTATE DEHYDROGENASE [1]: 398.67 u/L
- LIPASE [1]: 10.67 u/L
- PHOSPHORUS [1]: 13.37 mg/dL
- POTASSIUM [1]: 7 MEQ/L
- SODIUM [1]: 149 MEQ/L
- TOTAL BILIRUBIN [1]: 0.27 mg/dL
- TOTAL PROTEIN [1]: 6.23 G/DL
- URIC ACID [1]: 1.53 mg/dL
- ABSOLUTE BASOPHIL [2]: 0 CELLS/uL
- ABSOLUTE EOSINOPHIL [2]: 43 CELLS/uL
- ABSOLUTE LYMPHOCYTE [2]: 10491.67 CELLS/uL
- ABSOLUTE MONOCYTE [2]: 227.33 CELLS/uL
- ABSOLUTE SEGMENTED NEUTROPHIL [2]: 1004.67 CELLS/uL
- BASOPHIL [2]: 0%
- EOSINOPHIL [2]: 0.33%
- ERYTHROCYTE COUNT [2]: 6.03 x10E6/uL
- HEMATOCRIT [2]: 38.43%
- HEMOGLOBIN [2]: 14.23 G/DL
- LEUKOCYTE COUNT [2]: 11.77 x10E3/uL
- LYMPHOCYTE [2]: 89%
- MEAN CORPUSCULAR HEMOGLOBIN [2]: 23.67 pg
- MEAN CORPUSCULAR HEMOGLOBIN CONCENTRATION [2]: 37.03 G/DL
- MEAN CORPUSCULAR VOLUME [2]: 63.87 fL
- MONOCYTE [2]: 2%
- NEUTROPHIL [2]: 8.67%
- NUCLEATED RED BLOOD CELLS [2]: 0 /100WBC
- PLATELET COUNT [2]: 1197.33 x10E3/uL
- ALANINE AMINOTRANSFERASE [2]: 65 u/L
- ALBUMIN [2]: 4.63 G/DL
- ALKALINE PHOSPHATASE [2]: 455 u/L
- ASPARTATE AMINOTRANSFERASE [2]: 98.67 u/L
- BLOOD UREA NITROGEN [2]: 16.33 mg/dL
- CARBON DIOXIDE [2]: 24 mmol/L
- CHLORIDE [2]: 104.67 MEQ/L
- CHOLESTEROL [2]: 69.33 mg/dL
- CREATINE PHOSPHOKINASE [2]: 336 u/L
- CREATININE [2]: 0.19 mg/dL
- GLUCOSE [2]: 168.67 mg/dL
- LACTATE DEHYDROGENASE [2]: 329 u/L
- LIPASE [2]: 10.33 u/L
- PHOSPHORUS [2]: 15.57 mg/dL
- POTASSIUM [2]: 7.49 MEQ/L
- SODIUM [2]: 147.77 MEQ/L
- TOTAL BILIRUBIN [2]: 0.17 mg/dL
- TOTAL PROTEIN [2]: 6.6 G/DL
- URIC ACID [2]: 2.67 mg/dL
- ABSOLUTE BASOPHIL [3]: 0 CELLS/uL
- ABSOLUTE EOSINOPHIL [3]: 35 CELLS/uL
- ABSOLUTE LYMPHOCYTE [3]: 7367 CELLS/uL
- ABSOLUTE MONOCYTE [3]: 79.33 CELLS/uL
- ABSOLUTE SEGMENTED NEUTROPHIL [3]: 1085.33 CELLS/uL
- BASOPHIL [3]: 0%
- EOSINOPHIL [3]: 0.33%
- ERYTHROCYTE COUNT [3]: 5.88 x10E6/uL
- HEMATOCRIT [3]: 37.6%
- HEMOGLOBIN [3]: 13.93 G/DL
- LEUKOCYTE COUNT [3]: 8.57 x10E3/uL
- LYMPHOCYTE [3]: 86%
- MEAN CORPUSCULAR HEMOGLOBIN [3]: 23.7 pg
- MEAN CORPUSCULAR HEMOGLOBIN CONCENTRATION [3]: 37.07 G/DL
- MEAN CORPUSCULAR VOLUME [3]: 64 fL
- MONOCYTE [3]: 1%
- NEUTROPHIL [3]: 12.67%
- NUCLEATED RED BLOOD CELLS [3]: 0.33 /100WBC
- PLATELET COUNT [3]: 1265.33 x10E3/uL
- ALANINE AMINOTRANSFERASE [3]: 45.33 u/L
- ALBUMIN [3]: 4.9 G/DL
- ALKALINE PHOSPHATASE [3]: 446 u/L
- ASPARTATE AMINOTRANSFERASE [3]: 84 u/L
- BLOOD UREA NITROGEN [3]: 18.33 mg/dL
- CARBON DIOXIDE [3]: 17 mmol/L
- CHLORIDE [3]: 102 MEQ/L
- CHOLESTEROL [3]: 71.33 mg/dL
- CREATINE PHOSPHOKINASE [3]: 290.67 u/L
- CREATININE [3]: 0.2 mg/dL
- GLUCOSE [3]: 148 mg/dL
- LACTATE DEHYDROGENASE [3]: 411.33 u/L
- LIPASE [3]: 11.33 u/L
- PHOSPHORUS [3]: 13.93 mg/dL
- POTASSIUM [3]: 7.66 MEQ/L
- SODIUM [3]: 147.03 MEQ/L
- TOTAL BILIRUBIN [3]: 0.27 mg/dL
- TOTAL PROTEIN [3]: 6.87 G/DL
- URIC ACID [3]: 2.23 mg/dL
- ABSOLUTE BASOPHIL [4]: 0 CELLS/uL
- ABSOLUTE EOSINOPHIL [4]: 26.33 CELLS/uL
- ABSOLUTE LYMPHOCYTE [4]: 7838.33 CELLS/uL
- ABSOLUTE MONOCYTE [4]: 52.67 CELLS/uL
- ABSOLUTE SEGMENTED NEUTROPHIL [4]: 1616 CELLS/uL
- BASOPHIL [4]: 0%
- EOSINOPHIL [4]: 0.33%
- ERYTHROCYTE COUNT [4]: 6.38 x10E6/uL
- HEMATOCRIT [4]: 39.03%
- HEMOGLOBIN [4]: 14.3 G/DL
- LEUKOCYTE COUNT [4]: 9.53 x10E3/uL
- LYMPHOCYTE [4]: 81.33%
- MEAN CORPUSCULAR HEMOGLOBIN [4]: 22.43 pg
- MEAN CORPUSCULAR HEMOGLOBIN CONCENTRATION [4]: 36.63 G/DL
- MEAN CORPUSCULAR VOLUME [4]: 61.17 fL
- MONOCYTE [4]: 0.67%
- NEUTROPHIL [4]: 17.67%
- NUCLEATED RED BLOOD CELLS [4]: 0 /100WBC
- PLATELET COUNT [4]: 1351.33 x10E3/uL
- ALANINE AMINOTRANSFERASE [4]: 47 u/L
- ALBUMIN [4]: 4.67 G/DL
- ALKALINE PHOSPHATASE [4]: 399 u/L
- ASPARTATE AMINOTRANSFERASE [4]: 95.33 u/L
- BLOOD UREA NITROGEN [4]: 19 mg/dL
- CARBON DIOXIDE [4]: 30.67 mmol/L
- CHLORIDE [4]: 103.33 MEQ/L
- CHOLESTEROL [4]: 49 mg/dL
- CREATINE PHOSPHOKINASE [4]: 935.33 u/L
- CREATININE [4]: 0.2 mg/dL
- GLUCOSE [4]: 169 mg/dL
- LACTATE DEHYDROGENASE [4]: 578.33 u/L
- LIPASE [4]: 12.33 u/L
- PHOSPHORUS [4]: 13.23 mg/dL
- POTASSIUM [4]: 6.47 MEQ/L
- SODIUM [4]: 147.4 MEQ/L
- TOTAL BILIRUBIN [4]: 0.27 mg/dL
- TOTAL PROTEIN [4]: 6.8 G/DL
- URIC ACID [4]: 1.87 mg/dL
